In assay [1] the test system is Influenza A and B. Kind of assay: microbe, parasite or virus in culture. The following applies: read-out: Anti-influenza Activity CE cells IC50. The class given is cell-based, chick embryo cells.
For assay [2], the system named is Influenza A and B. The class given is in vivo, mouse. The following applies: given as +(n), route and dose not specified.
The mark [3] stands for this setting: primary chick embryo (CE) cells, influenza strain not given.

Where two headings read alike, the source gives them in different places.

Consider `Nc1nc(N)c2ncn([C@@H]3O[C@H](CO)[C@@H](O)[C@H]3F)c2n1` [Example 6, 2,6-Diamino-9-(2-deoxy-2-fluoro-β-D-ribofuranosyl)-9H-purine], for which, in the assay on Influenza A and B [1] (in Gallus gallus), the IC50 – broadly, the concentration needed to halve the response being measured – was 600 nM. In the assay on Influenza A and B [2], the “Mouse log10 reduction in virus titre (Average of 5 Mice)” value (“Mouse log10 reduction in virus titre” below) was 2.1 log10.

Turning to `Nc1nc2c(ncn2[C@@H]2O[C@H](CO)[C@@H](O)[C@H]2F)c(=O)[nH]1` [Example 7, 9-(2-Deoxy-2-fluoro-β-D-ribofuranosyl)guanine], the IC50 in the assay with Influenza A and B [1] (setting [3]) lay within 800 to 2000 nM. Also, the “Mouse log10 reduction in virus titre” value in the assay on Influenza A and B [2] was 2.4 log10.

Regarding `Nc1ncnc2c1ncn2[C@@H]1O[C@H](CO)[C@@H](O)[C@H]1F` [Example 8, 9-(2-Deoxy-2-fluoro-β-D-ribofuranosyl)adenine], in the assay on Influenza A and B [1] (setting [3]), the IC50 was determined as 4000 nM. In addition, the “Mouse log10 reduction in virus titre” value with Influenza A and B [2] is listed as 2.3 log10.

Take `Nc1ncc2ncn([C@@H]3O[C@H](CO)[C@@H](O)[C@H]3F)c2n1` [Example 9, 2-Amino-9-(2-deoxy-2-fluoro-β-D-ribofuranosyl)-9H-purine]: the “Mouse log10 reduction in virus titre” value in the assay with Influenza A and B [2] amounted to 1.6 log10.

In the case of `COc1nc(N)nc2c1ncn2[C@@H]1O[C@H](CO)[C@@H](O)[C@H]1F` [Example 12, 2-Amino-9-(2-deoxy-2-fluoro-β-D-ribofuranosyl)-6-methoxy-9H-purine], the IC50 in the assay with Influenza A and B [1] (setting [3]) was 400 nM. Moreover, the “Mouse log10 reduction in virus titre” value with Influenza A and B [2] is reported as 1.9 log10.

The values are drawn from patent US5420115A, “Method for the treatment of protoza infections with 2^1 -deoxy-2^1 -fluoropurine nucleosides” (priority 1992, dated 1995).
